Results published in patent publication US20190307729A1, “ANTIMICROBIAL COMPOUNDS AND METHODS FOR USE THEREOF” (VERSITECH LIMITED, priority 2016, published 2019).
“Also recorded” adds a separate entry of the source. Where two headings read alike, the source gives them in different places.

Legend:
hla promoter [1] = test: Paper disc diffusion and lux assay (hla promoter lux reporter); type: cell-based, S. aureus
Description: A single colony of bioluminescent S. aureus carrying the hla-promoter lux reporting system was resuspended in 200 μl of sterile water, diluted 1000-fold into 0.7% (w/v) BHI agar and overlaid onto BHI agar plates. 10 μl of the 50 mM analogues compounds dissolved in DMSO were impregnated to paper disc and placed on the lawn of bacteria. The plates were incubated overnight at 37° C. The luminescence was detected with Xenogen IVIS 100 in vivo imaging system (Xenogen, Alameda, Calif.).

Vero cells = test: Cytotoxicity assay (MTT); type: cell-based; conditions: for Cytotoxicity: MTT assays in Vero cells
Description: MTT assays are performed for selected compounds on Vero cells according to product instructions.

hla promoter [2] = test: Paper disc diffusion and lux assay (hla promoter lux reporter); type: cell-based, S. aureus; conditions: each compound used at 25 μM
S. aureus Mu3 [3] = test: BALB/c mice infection model, organ bacterial load; conditions: 3 days after infection
Description: (§1) 6-8 weeks old female BALB/c mice were infected with 4×10^8 CFU of S. aureus. […] 3 days after infection, the animals were euthanized; kidneys, livers and spleens were homogenized in PBS, and plated on BHI agar for quantitative bacterial culture.

S. aureus USA300 = test: BALB/c mice infection model, organ bacterial load; conditions: 3 days after infection
Description: as §1

S. aureus = test: MIC of compound 3 and analogues (Table 7, strain not given)
S. aureus Mu3 [4] = test: Secondary screening of compound 13 analogues in combination with gentamicin (growth by OD 595 nm); conditions: for activity at 5 µM / activity at 20 µM / activity at 50 µM / inhibition at 20 µM / inhibition at 50 µM: Staphylococcus aureus; for activity at 5 µM / activity at 20 µM / activity at 50 µM: MU3, 16 h, read-out: relative growth; for inhibition at 20 µM: MU3, read-out: 20 μM + 200 μg/ml Gentamicin Growth inhibition Percentage; for inhibition at 50 µM: MU3, read-out: 50 μM + 200 μg/ml Gentamicin Growth inhibition Percentage; for relative growth: relative to DMSO = 1
Description: All screening is done in 384-well polystyrene microtiter plates (Greiner Bio-One). Overnight culture of Mu3 is washed with BHI medium 3 times, diluted and plated to give 5×10^5 CFU/mL per well. The plates are incubated at 37° C. for 16 hours and growth is monitored by optical density reading at 595 nm using an automated DTX 880 multimode detector. Screening using BHI medium is designated as the background screen. […] Sub MIC concentration of antibiotics is selected for screening. BHI containing a final concentration for gentamicin 156.25 μg/mL is used correspondingly for individual experiments. […] Screening results with various antibiotics is normalized with the background screening to calculate the percentage of growth inhibition.
Identical experimental procedures are performed as primary screening procedures, except different concentrations of selected compound are tested.
Secondary like screening was performed with different concentrations of each analogue compounds were tested with different gentamicin concentration, 50 μM, 20 μM and 5 μM compound concentration were used against, BHI containing, 0 μg/ml, 100 μg/ml and 200 μg/ml gentamicin.

S. aureus Mu3 strain = test: Microdilution checkerboard assay of compound with aminoglycosides; conditions: for Combinatory effect with gentamicin: checkerboard
Description: (§2) The Checkerboard assay is performed in 96-well microtitre plates. […] The antibiotics are 2 fold serially diluted along the ordinate, the compounds are added along the abscissa to generate the checkerboard concentration gradients between the compounds and the antibiotics. Bacterial culture are topped and incubated overnight. Bacterial growth is monitored by the OD absorbance at 595 nm.
(§3) The concentration tested range was from 500M to 0.98 μM. MICs higher than 500M were not determined.

E. coli = test: Checkerboard assay with gentamicin; type: cell-based, Escherichia coli
Description: Bacterial culture are topped and incubated overnight.

P. aeruginosa = test: Pigment formation (virulence suppression); type: cell-based, Pseudomonas aeruginosa
L. monocytogenes = test: Checkerboard assay with gentamicin
Description: as §2, §3

E. faecalis = test: Checkerboard assay with gentamicin
Description: as §2, §3

S. pneumoniae = test: Checkerboard assay with gentamicin
Description: as §2, §3

MRSA Mu3 = test: Minimal inhibitory concentration (MIC) test, broth micro-dilution; type: cell-based, Staphylococcus aureus; conditions: microbroth dilution
Description: Preliminary testing of the MIC value of three antibiotics (Gentamicin, Ceftriaxone, and Levofloxacin) against MRSA Mu3 was performed according to microbroth dilution methods. This was to establish the reference for the appropriate amount of antibiotics to be used for HTS for hit identification of compounds that could have synergistic activities or potentiate the antibiotic's antimicrobial effect. The MIC value of Gentamicin against MRSA Mu3 was determined to be 1000 μg/mL.

Molecule: O=C(O)CN1C(=O)/C(=C/c2ccc(OCc3ccccc3)cc2)SC1=S [Compound 3]
- repression in hla promoter lux reporter assay (hla promoter [1]): significant repression
- Cytotoxicity (Vero cells): Low
- Relative lux signal (hla promoter [2]): 0.00439
- kidney bacterial load (S. aureus Mu3 [3]): reduction; also recorded: reduce kidney bacterial load
- liver bacterial load (S. aureus Mu3 [3]): reduction; also recorded: reduce liver bacterial load
- spleen bacterial load (S. aureus Mu3 [3]): reduction; also recorded: reduce spleen bacterial load
- liver bacterial load (S. aureus USA300): reduction; also recorded: reduce liver bacterial load
- spleen bacterial load (S. aureus USA300): reduction; also recorded: reduce spleen bacterial load
- MIC (S. aureus; Staphylococcus aureus): 500 µM
- activity at 5 µM (S. aureus Mu3 [4]): 118%
- activity at 20 µM (S. aureus Mu3 [4]): 109%
- activity at 50 µM (S. aureus Mu3 [4]): 88%
- inhibition at 20 µM (S. aureus Mu3 [4]): 60%
- inhibition at 50 µM (S. aureus Mu3 [4]): 92%
- relative growth (S. aureus Mu3 [4]; [Cpd] 5 μM, [Genta] 100 ug/ml): 1.12
- relative growth (S. aureus Mu3 [4]; [Cpd] 5 μM, [Genta] 200 ug/ml): 1.18
- relative growth (S. aureus Mu3 [4]; [Cpd] 20 μM, [Genta] 100 ug/ml): 0.94
- relative growth (S. aureus Mu3 [4]; [Cpd] 20 μM, [Genta] 200 ug/ml): 0.4
- relative growth (S. aureus Mu3 [4]; [Cpd] 50 μM, [Genta] 100 ug/ml): *0.09
- relative growth (S. aureus Mu3 [4]; [Cpd] 50 μM, [Genta] 200 ug/ml): *0.08

Molecule: O=C(O)CN1C(=O)/C(=C/c2cccc(OCc3ccccc3Cl)c2)SC1=S [Compound 19]
- cytotoxicity from Vero cell MTT assays (Vero cells): less cytotoxicity
- Cytotoxicity (Vero cells): Medium
- Combinatory effect with gentamicin (S. aureus Mu3 strain): Potentiating
- combined effect with gentamicin in inhibiting growth (S. aureus Mu3 strain): promising potentiating effect
- combined effect with gentamicin in inhibiting growth (S. aureus Mu3 strain; listed as compound 19): potentiating effect
- activity at 5 µM (S. aureus Mu3 [4]): 99%
- activity at 20 µM (S. aureus Mu3 [4]): 91%
- activity at 50 µM (S. aureus Mu3 [4]): 76%
- inhibition at 20 µM (S. aureus Mu3 [4]): 91%
- inhibition at 50 µM (S. aureus Mu3 [4]): 92%
- relative growth (S. aureus Mu3 [4]; [Cpd] 5 μM, [Genta] 100 ug/ml): 0.96
- relative growth (S. aureus Mu3 [4]; [Cpd] 5 μM, [Genta] 200 ug/ml): 0.83
- relative growth (S. aureus Mu3 [4]; [Cpd] 20 μM, [Genta] 100 ug/ml): *0.1
- relative growth (S. aureus Mu3 [4]; [Cpd] 20 μM, [Genta] 200 ug/ml): *0.09
- relative growth (S. aureus Mu3 [4]; [Cpd] 50 μM, [Genta] 100 ug/ml): *0.09
- relative growth (S. aureus Mu3 [4]; [Cpd] 50 μM, [Genta] 200 ug/ml): *0.08

Molecule: CCOc1cc(/C=C2\SC(=S)N(CC(=O)O)C2=O)ccc1OCc1ccc(Cl)cc1 [Compound 20]
- cytotoxicity from Vero cell MTT assays (Vero cells): less cytotoxicity
- Cytotoxicity (Vero cells): Medium/Low
- Combinatory effect with gentamicin (S. aureus Mu3 strain): Potentiating
- combined effect with gentamicin in inhibiting growth (S. aureus Mu3 strain): promising potentiating effect
- combined effect with gentamicin in inhibiting growth (S. aureus Mu3 strain; listed as compound 20): potentiating effect
- activity at 5 µM (S. aureus Mu3 [4]): 101%
- activity at 20 µM (S. aureus Mu3 [4]): 78%
- activity at 50 µM (S. aureus Mu3 [4]): 91%
- inhibition at 20 µM (S. aureus Mu3 [4]): 91%
- inhibition at 50 µM (S. aureus Mu3 [4]): 86%
- relative growth (S. aureus Mu3 [4]; [Cpd] 5 μM, [Genta] 100 ug/ml): 0.96
- relative growth (S. aureus Mu3 [4]; [Cpd] 5 μM, [Genta] 200 ug/ml): 0.88
- relative growth (S. aureus Mu3 [4]; [Cpd] 20 μM, [Genta] 100 ug/ml): *0.14
- relative growth (S. aureus Mu3 [4]; [Cpd] 20 μM, [Genta] 200 ug/ml): *0.09
- relative growth (S. aureus Mu3 [4]; [Cpd] 50 μM, [Genta] 100 ug/ml): *0.17
- relative growth (S. aureus Mu3 [4]; [Cpd] 50 μM, [Genta] 200 ug/ml): *0.14

Molecule: CCCOc1ccc(/C=C2\SC(=S)N(CC(=O)O)C2=O)cc1 [Compound 48]
- repression in hla promoter lux reporter assay (hla promoter [1]): significant repression
- activity at 5 µM (S. aureus Mu3 [4]): 98%
- activity at 20 µM (S. aureus Mu3 [4]): 95%
- activity at 50 µM (S. aureus Mu3 [4]): 87%
- inhibition at 20 µM (S. aureus Mu3 [4]): 36%
- inhibition at 50 µM (S. aureus Mu3 [4]): 69%
- relative growth (S. aureus Mu3 [4]; [Cpd] 5 μM, [Genta] 100 ug/ml): 0.97
- relative growth (S. aureus Mu3 [4]; [Cpd] 5 μM, [Genta] 200 ug/ml): 0.96
- relative growth (S. aureus Mu3 [4]; [Cpd] 20 μM, [Genta] 100 ug/ml): 0.97
- relative growth (S. aureus Mu3 [4]; [Cpd] 20 μM, [Genta] 200 ug/ml): 0.64
- relative growth (S. aureus Mu3 [4]; [Cpd] 50 μM, [Genta] 100 ug/ml): 0.8
- relative growth (S. aureus Mu3 [4]; [Cpd] 50 μM, [Genta] 200 ug/ml): *0.31

Molecule: O=C(O)CN1C(=O)C(=Cc2ccc(OCc3ccc(Cl)cc3)cc2)SC1=S [Compound 82]
- combined effect with gentamicin in inhibiting growth (E. coli): synergistic effect
- combined effect with gentamicin in inhibiting growth (E. coli; listed as compound 82): potentiating effect
- cytotoxicity from Vero cell MTT assays (Vero cells): low cytotoxicity
- Cytotoxicity (Vero cells): Low
- pigment formation (P. aeruginosa): repressing the pigment formation
- combined effect with gentamicin in inhibiting growth (L. monocytogenes): potentiating effect
- combined effect with gentamicin in inhibiting growth (E. faecalis): potentiating effect
- combined effect with gentamicin in inhibiting growth (S. pneumoniae): potentiating effect
- Combinatory effect with gentamicin (S. aureus Mu3 strain): Potentiating
- combined effect with gentamicin in inhibiting growth (S. aureus Mu3 strain): good level of potentiating effect
- combined effect with neamine in inhibiting growth (S. aureus Mu3 strain): retained its potentiating effect
- combined effect with neamine in inhibiting growth (S. aureus Mu3 strain; listed as compound 82): potentiating effect
- 20 μM + 200 μg/ml Gentamicin Growth inhibition Percentage (S. aureus Mu3 [4]; 20 μM compound + 200 μg/ml gentamicin, S. aureus Mu3): 91%
- 50 μM + 200 μg/ml Gentamicin Growth inhibition Percentage (S. aureus Mu3 [4]; 50 μM compound + 200 μg/ml gentamicin, S. aureus Mu3): 89%
- relative growth (S. aureus Mu3 [4]; [Cpd] 5 μM, BHI only (no gentamicin)): 1.03
- relative growth (S. aureus Mu3 [4]; [Cpd] 5 μM, [Genta] 100 ug/ml): 0.98
- relative growth (S. aureus Mu3 [4]; [Cpd] 5 μM, [Genta] 200 ug/ml): 0.61
- relative growth (S. aureus Mu3 [4]; [Cpd] 20 μM, BHI only (no gentamicin)): 0.78
- relative growth (S. aureus Mu3 [4]; [Cpd] 20 μM, [Genta] 100 ug/ml): *0.09
- relative growth (S. aureus Mu3 [4]; [Cpd] 20 μM, [Genta] 200 ug/ml): *0.09
- relative growth (S. aureus Mu3 [4]; [Cpd] 50 μM, BHI only (no gentamicin)): 0.99
- relative growth (S. aureus Mu3 [4]; [Cpd] 50 μM, [Genta] 100 ug/ml): *0.13
- relative growth (S. aureus Mu3 [4]; [Cpd] 50 μM, [Genta] 200 ug/ml): *0.11

Molecule: COc1ccc(/C=C2/SC(=S)N(CCC(N)=O)C2=O)cc1 [Compound 87]
- repression in hla promoter lux reporter assay (hla promoter [1]): hla promoter lux repression
- Relative lux signal (hla promoter [2]): 0.2657
- MIC (S. aureus): 500 µM

Molecule: Gentamicin
- MIC value against MRSA Mu3 (MRSA Mu3): 1000 µg/mL
